# Measurements as given in patent US20240400546A1, “COMPOUNDS AND USES THEREOF” (JANSSEN PHARMACEUTICA NV, priority 2016, published 2024).
# Molecular target: T1, SCD1 (Homo sapiens, UniProt O00767)
# T1 construct: host or cells: S. cerevisiae ole1Δ strain, plasmid pRS316 with TDH3 promoter and CYC1 terminator
# T1 sequence (O00767 1-359): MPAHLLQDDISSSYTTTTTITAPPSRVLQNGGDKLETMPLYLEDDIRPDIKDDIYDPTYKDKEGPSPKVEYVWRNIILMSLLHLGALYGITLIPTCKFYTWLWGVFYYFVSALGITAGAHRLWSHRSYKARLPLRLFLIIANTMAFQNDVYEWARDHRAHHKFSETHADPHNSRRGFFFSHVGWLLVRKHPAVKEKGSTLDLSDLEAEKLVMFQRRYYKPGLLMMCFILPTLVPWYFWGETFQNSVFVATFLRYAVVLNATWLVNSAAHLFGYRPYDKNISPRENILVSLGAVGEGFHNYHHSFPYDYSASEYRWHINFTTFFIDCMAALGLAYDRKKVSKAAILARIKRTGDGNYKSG
# Assay: Growth inhibition of humanized yeast expressing SCD1 as sole desaturase
# Type: cell-based
# Conditions: humanized yeast expressing SCD1
# Procedure: Strain ole1Δ (yeast ole1 deletion mutant) was constructed by deleting OLE1 with NAT-MX6 in BY4741, amplifying the deletion cassette from the genomic DNA of the resulting strain with primers flanking the ORF by 1000 bp upstream and downstream, transforming the resulting deletion cassette into W303 pdr1Δ pdr3Δ, and plating transformants on YPD media containing G418 (200 μg/mL) and nourseothricin (100 μg/mL) with 0.01% TWEEN®-20 and 0.5 mM oleic and palmitoleic acids.
# The coding sequence of yeast OLE1 was also cloned into this plasmid). These clones were then transformed into the ole1Δ strain and plated on CSM-Ura media (CSM lacking uracil) with 2% glucose (w/v) and independent colonies were isolated and amplified.
# All compound profiling experiments were performed using the same basic protocol. Different genetic backgrounds (e.g., gene deletions) or conditions (e.g., addition of oleic and palmitoleic acid) were replaced as indicated below.
# Yeast were cultured using standard techniques in complete synthetic media (CSM) and yeast nitrogen base supplemented with 2% (w/v) carbon source (glucose, raffinose, or galactose) to regulate the expression of the toxic disease protein. An initial starter culture was inoculated in 3 mL CSM-Glucose media and incubated overnight in a 30° C. shaker incubator (225 rpm). Saturated morning cultures were then diluted 1:20 in fresh CSM-Raffinose media and grown for 6 h to an OD600 (optical density) of ˜0.4-0.8 at 30° C. with shaking.
# Compound administration was performed in two separate steps. First, 15 μL of CSM-Galactose (induces expression of toxic protein) was dispensed into clear 384 well assay plates using a MULTIDROP™ Combi reagent dispenser. […] The cultures described above were then diluted to a 2× concentration (0.03 and 0.08 for alpha-synuclein and ApoE, final OD600 of 0.015 and 0.04) in CSM-Galactose. For wild-type and Ole1/SCD1/SCD5 plasmid-containing strains, the 2× cell density was 0.02. […] For 96-well assays (FIGS. 1A and 1B), compound dilutions in DMSO were generated in 96 well plates and 1 μL was manually pipetted into 96 well clear bottom assay plates.
# For experiments using a plasmid-borne copy of Ole1, SCD1, or SCD5 (FIGS. 3B, 6, and 7), media lacking uracil (SX-Ura, where X is glucose, raffinose, or galactose), was used for all steps of the compound profiling protocol to ensure its maintenance throughout the assay.
# After yeast delivery, assay plates were incubated under humidified conditions at 30° C. for 24 to 40 h. ApoE4 rescue experiments were stopped at 24 h, aSyn experiments at 40 h, Ole1 at 24 h, and SCD1/SCD5 at 40 h. The growth of yeast was monitored by reading the OD600 of each well using a microplate reader (Perkin Elmer EnVision™).
row,SMILES,IC50 [µM]
1,Cc1ccc(-c2nc(C3CCN(C(=O)C4CC(=O)N(c5ccc(C)c(C)c5)C4)CC3)no2)cc1 (stereo not drawn) [Compound 50],41
2,Cn1c(=O)n(C)c2cc(-c3noc(C4CCN(C(=O)[C@@H](CO)NC(=O)c5ccccc5)CC4)n3)ccc21 [Compound 214],41
3,CC(C)n1ncc2cc(-c3noc(C4CCN(C(=O)CNC(=O)c5ccccc5)CC4)n3)ccc21 [Compound 228],41

# Same assay, conditions: humanized yeast expressing human SCD1
row,SMILES,IC50 [µM]
1,Cc1nn(C)c2cc(-c3noc(N4CCN(C(=O)[C@H]5CC(=O)N(c6ccccc6)C5)CC4)n3)cnc12 [Compound 246],> 45
2,N#Cc1ccc(-c2noc(C3CCN(C(=O)[C@H]4CC(=O)N(c5ccccc5)C4)CC3)n2)s1 [Compound 247],> 45
3,O=C([C@H]1CC(=O)N(c2ccccc2)C1)N1CCC(c2nc(-c3ccc(Br)s3)no2)CC1 [Compound 248],> 45
4,COc1cc(-c2noc(C3CCN(C(=O)CNC(=O)c4ccccc4)CC3)n2)ccc1OC1CC1 [Compound 249],> 45
5,Cc1nn(C)c2cc(-c3nsc(C4CCN(C(=O)CNC(=O)c5ccccc5)CC4)n3)ccc12 [Compound 250],> 45
6,CNC(=O)c1ccc(-c2noc(C3CCN(C(=O)[C@H]4CC(=O)N(c5ccccc5)C4)CC3)n2)cn1 [Compound 252],> 45
7,COc1cc(-c2noc(C3CCN(C(=O)CNC(=O)c4ccccc4)CC3)n2)ccc1OC(F)(F)F [Compound 253],> 45
8,Cn1c(=O)n(C)c2cc(-c3noc(C4CCN(C(=O)[C@H]5CC(=O)N(c6ccccn6)C5)CC4)n3)ccc21 [Compound 256],> 45
9,Cc1nn(C)c2cc(-c3noc(N4CCN(C(=O)c5ccccc5)CC4)n3)ccc12 [Compound 261],> 45
10,Cc1nn(C)c2cc(-c3noc(N4CCN(C(=O)c5ccccc5Cl)CC4)n3)ccc12 [Compound 262],> 45
11,Cc1nn(C)c2cc(-c3noc(C4CCN(C(=O)CC(C)(C)C)CC4)n3)ccc12 [Compound 263],> 45
12,Cc1nn(C)c2cc(-c3noc(C4CCN(C(=O)COc5ccccc5)CC4)n3)ccc12 [Compound 266],> 45
13,Cc1nn(C)c2cc(-c3noc(C4CCN(C(=O)CNC(=O)c5ccc(Cl)cc5)CC4)n3)ccc12 [Compound 269],> 45
14,Cc1nn(C)c2cc(-c3noc(N4CCN(C(=O)c5cccc(F)c5)CC4)n3)ccc12 [Compound 270],> 45
15,Cc1nn(C)c2cc(-c3noc(C4CCN(C(=O)CNC(=O)c5ccccc5C(F)(F)F)CC4)n3)ccc12 [Compound 271],> 45
16,Cc1nn(C)c2cc(-c3noc(C4CCN(C(=O)Oc5ccccc5)CC4)n3)ccc12 [Compound 272],> 45
17,COC(=O)N1CCC(c2nc(-c3ccc4c(C)nn(C)c4c3)no2)CC1 [Compound 273],> 45
18,COc1ccc(-c2noc(C3CCN(C(=O)CNC(=O)c4ccccc4)CC3)n2)cc1OC(C)C [Compound 274],> 45
19,CC(C)n1cc2ccc(-c3noc(C4CCN(C(=O)OC(C)(C)C)CC4)n3)cc2n1 [Compound 277],> 45
20,Cc1nn(C)c2cc(-c3noc(N4CCN(C(=O)c5cc(F)ccc5Cl)CC4)n3)ccc12 [Compound 278],> 45
21,Cc1nn(C)c2cc(-c3noc(C4CCN(S(=O)(=O)C(C)C)CC4)n3)ccc12 [Compound 279],> 45
22,Cc1nn(C)c2cc(-c3noc(C4CCN(C(=O)c5ccccc5)CC4)n3)ccc12 [Compound 280],> 45
23,Cc1nn(C)c2cc(-c3noc(C4CCN(C(=O)NC(C)(C)C)CC4)n3)ccc12 [Compound 282],> 45
24,Cc1nn(C)c2cc(-c3noc(C4CCN(C(=O)c5cccc(F)c5)CC4)n3)ccc12 [Compound 284],> 45
25,CC(C)c1ccc(C(=O)N2CCC(c3nc(C(=O)Nc4cnn(C)c4)no3)CC2)cc1 [Compound 285],> 45
26,Cc1nn(C2CC2)c2cc(-c3noc(C4CCN(C(=O)CNC(=O)c5ccccc5)CC4)n3)ccc12 [Compound 286],> 45
27,CC(C)c1ccc(C(=O)N2CCC(c3nc(C(=O)Nc4ccnn4C)no3)CC2)cc1 [Compound 287],> 45
